According to US11634666B2, “Methods for spore removal comprising a polysorbate surfactant and cationic antimicrobial mixture” (3M INNOVATIVE PROPERTIES COMPANY, priority 2015, dated 2023):

System: C. sporogenes spores ATCC 3584
Experiment: In-vitro experiment to evaluate ability of test formulations to remove spores from skin like surfaces (Vitro-Skin, finger bag collection method)
Details: for log reduction of spores (in words): higher concentrations (1%)
Text: The in-vitro method was designed to evaluate the removal of microbes from skin using a synthetic skin material from the cosmetic industry, Vitro-skin from IMS inc, Portland METhis method enables rapid screening of formulations for their propensity to promote release of microbes from skin and may be predictive of in-vivo activity.
The following materials were utilized. C. sporogenes spores ATCC 3584˜1.0×10^8 CFU/ml; Triton-X 100 sampling buffer (pH 7.4) Filter Sterilized: 0.4 g KH2PO4, 10.1 g Na2HPO4, 1 g Triton-X 100, and 1 L dH2O; D/E neutralizing broth; Fingers from disposable polyethylene gloves (VWR 32915-268); Sterile dH2O (WFI quality water); 3M AC Petrifilm; and 5 ml Falcon tubes; 1.5 ml EPI Centrifuge tubes; Petri Dishes; Vitro-Skin IMS Inc.; and double-sided tape.
The method included the following. Punched-out specified number of Vitro-Skin samples using the ¾″ punch. Attached punch-out Vitro-Skin samples to a Petri-dish or any other sterile flat surface using double-sided tape. Contaminated the Vitro-Skin samples accordingly with 10 μl of spores/spore prep (˜1×10^6 CFU/Sample). Used the pipette tip to spread spores over the surface and used a new pipette tip for each sample. Allowed the samples to dry (˜40 minutes). Placed three samples directly into separate finger bags containing 3 ml of triton-x 100 sampling solution or D/E neutralizing broth if one of the samples going to be tested contains antimicrobials. Used the “Finger bag collection method” below for each of the three recovery controls.
The Finger bag collection method was carried out as follows. First, a finger bag was cut from disposable gloves.
For the controls: Filled the finger bag with 3 ml of sampling solution. Placed contaminated Vitro-Skin sample into the finger bag containing sampling solution. Massaged finger bag for 1 minute using thumb and index finger. Removed aliquot of fluid from the finger bag and place into an appropriately labeled 1.5 ml centrifuge tube.
For the tested samples: Placed contaminated Vitro-Skin sample into a finger bag containing 3 ml of appropriate test solution. Massage in finger bag for 20 seconds. Removed the Vitro-Skin sample from the finger bag and place into a new finger bag containing 3 ml of sampling solution (Triton x-100 glove juice buffer or D/E neutralizing broth). Collected sample by using the finger bag collection method noted above. Repeat “Placed contaminated vitro-skin sample . . . ” to “Collected sample . . . ” for each of the test solutions.
For best statistical data each test solution was repeated 3 times. Heat treated appropriately labeled 1.5 ml centrifuge tubes containing aliquots of solution for 20 min at 80 C. Serially diluted samples in butterfield's buffer and plate 10^-1 to 10^-4 dilution on AC Petrifilm. Heat shocked, diluted, and plated spore stock day of experiment. Incubated Petrifilm in an anaerobic chamber at 37 C for 20-24 hours. Counted plates and analyzed data.

[1] = Example 3, added to water, all concentrations

Row | Molecule | log reduction of spores (in words) (Example 3) | spore removal (in words) [1] | further results
1 | Cc1cc(O)cc(C)c1Cl [PCMX, 4-chloro-3,5-dimethylphenol] | good log reduction of spores |  | 
2 | Oc1cc(Cl)ccc1Oc1ccc(Cl)cc1Cl [Triclosan, 5-chloro-2-(2,4-dichlorophenoxy)phenol] | good log reduction of spores |  | 
3 | N=C(NCCCCCCNC(=N)NC(=N)Nc1ccc(Cl)cc1)NC(=N)Nc1ccc(Cl)cc1.O=C(O)[C@H](O)[C@@H](O)[C@H](O)[C@H](O)CO.O=C(O)[C@H](O)[C@@H](O)[C@H](O)[C@H](O)CO [chlorhexidine gluconate, Chlorhexidine gluconate] |  | poor spore removal | spore removal (in words) (Example 6, Tables 6a/6b): poor spore removal
4 | CCCCCCCCN=c1ccn(CCCCCCCCCCn2ccc(=NCCCCCCCC)cc2)cc1.Cl.Cl [octinidine, N,N′-(decane-1,10-diyldipyridin-1-yl-4-ylidene)dioctan-1-amine dihydrochloride] |  |  | spore removal (in words) (Example 3, higher concentration): unaffected
5 | benzalkonium chloride |  | poor spore removal | 
